Tested on: secretion of cytokine IL-8 into the human monocyte cell line THP-1
Assay: inhibition of LPS-triggered IL-8 secretion in THP-1 cells (ELISA of supernatant)
Format: cell-based
Method: As an essential, molecular mechanism for the anti-inflammatory action of glucocorticoids, the GR-mediated inhibition of the transcription of cytokines, adhesion molecules, enzymes and other pro-inflammatory factors is considered. This inhibition is produced by an interaction of the GR with other transcription factors, e.g., AP-1 and NF-kappa-B (for a survey, see Cato, A. C. B., and Wade, E., BioEssays 18, 371-378, 1996).
The concentration of the cytokines was determined in the supernatant by means of commercially available ELISA kits.

IC50 (Homo sapiens, inhibition of LPS-triggered IL-8 secretion, THP-1 cells, read-out: IC50(IL8)): 0.31 nM
Compound: COCC(O)(C(Nc1cc(F)cc2c1ccc(=O)n2-c1ccc(F)nc1)c1ccc(OC)c(F)c1Cl)C(F)(F)F (centres unmarked) [Example 2, 5-{[1-(2-Chloro-3-fluoro-4-methoxyphenyl)-3,3,3-trifluoro-2-hydroxy-2-(methoxymethyl)propyl]amino}-7-fluoro-1-(6-fluoropyridin-3-yl)-1H-quinolin-2-one]
efficacy (IL-8 inhibition, in comparison with dexamethasone as reference): 107%

— patent publication EP2149558A1, “5-[(3,3,3-Trifluoro-2-hydroxy-1-arylpropyl)amino-1-arylquinolin-2-ones, a process for their production and their use as anti-inflammatory agents” (Bayer Schering Pharma Aktiengesellschaft, priority 2008, dated 2010)
